The source made the active and inactive calls. The rule behind the calls is not given here.
Assays:
[1] = system: Peritoneal macrophage; assay: Antiinflammatory activity against LPS-stimulated mouse peritoneal macrophage assessed as IL-6 level at 2 uM treated for 3 hrs followed by ATP addition measured after 30 mins by ELISA method; type: functional, cell-based; conditions: time 3.5 hrs
[2] = system: Peritoneal macrophage; assay: Antiinflammatory activity against LPS-stimulated mouse peritoneal macrophage assessed as IL-1beta level at 2 uM treated for 3 hrs followed by ATP addition measured after 30 mins by ELISA method relative to control; type: functional; conditions: time 3.5 hrs
[3] = system: Peritoneal macrophage; assay: Antiinflammatory activity against LPS-stimulated mouse peritoneal macrophage assessed as TNF-alpha level at 2 uM treated for 3 hrs followed by ATP addition measured after 30 mins by ELISA method relative to control; type: functional; conditions: time 3.5 hrs
[4] = system: Peritoneal macrophage; assay: Cytotoxicity against mouse peritoneal macrophages at 4 uM incubated for 3.5 hrs by MTT assay; type: toxicity, cell-based
[5] = system: Peritoneal macrophage; assay: Antiinflammatory activity against LPS-stimulated mouse peritoneal macrophage assessed as IL-6 level at 2 uM treated for 3 hrs followed by ATP addition measured after 30 mins by ELISA method relative to control; type: functional; conditions: time 3.5 hrs

Row | SMILES | Activity [1] | Activity [2] | Activity [3] | Activity [4] | Activity [5]
1 | Cc1cccc2c3c(ccc12)-c1oc2c(c1C(=O)C3=O)CCN(CC(=O)N1CCN(C)CC1)C2 | inactive | 77% | 35% | Non-Toxic | 
2 | Cc1cccc2c3c(ccc12)-c1oc2c(c1C(=O)C3=O)CCN([C@@H](C)CO)C2 | inactive | 49% | 40% | Non-Toxic | 
3 | CNC(=O)[C@H](C)N1CCc2c(oc3c2C(=O)C(=O)c2c-3ccc3c(C)cccc23)C1 | inactive | 96% | 31% | Non-Toxic | 
4 | Cc1cccc2c3c(ccc12)-c1oc2c(c1C(=O)C3=O)CCN(CCN(C)C)C2 |  | 88% | 20% | Non-Toxic | 3%
5 | COC(=O)CCN1CCc2c(oc3c2C(=O)C(=O)c2c-3ccc3c(C)cccc23)C1 |  | 87% | 46% | Non-Toxic | 34%
6 | Cc1cccc2c3c(ccc12)-c1oc2c(c1C(=O)C3=O)CCN(CCS(C)(=O)=O)C2 | inactive | 90% | 46% | Non-Toxic | 
7 | COC(=O)[C@H](Cc1ccccc1)N1CCc2c(oc3c2C(=O)C(=O)c2c-3ccc3c(C)cccc23)C1 | inactive | 23% | 24% | Non-Toxic | 
8 | CC(C)(O)c1coc(S(=O)(=O)NC(=O)Nc2c3c(cc4c2CCC4)CCC3)c1 | inactive | 98% | 12% |  | 
9 | Cc1cccc2c3c(ccc12)-c1oc2c(c1C(=O)C3=O)CCN(CCC(=O)N1CCOCC1)C2 | inactive | 92% | 10% | Non-Toxic | 
10 | Cc1cccc2c3c(ccc12)-c1oc2c(c1C(=O)C3=O)CCN(CCCN1CC[C@@H](O)C1)C2 | inactive | 92% | 33% | Non-Toxic | 
11 | Cc1cccc2c3c(ccc12)-c1oc2c(c1C(=O)C3=O)CCN(CCCN1CCC(N3CCOCC3)CC1)C2 | inactive | 88% | 40% | Non-Toxic | 
12 | Cc1cccc2c3c(ccc12)-c1oc2c(c1C(=O)C3=O)CCN(CCCn1ccnc1)C2 | inactive | 95% | 17% | Non-Toxic | 
13 | COC(=O)CN1CCc2c(oc3c2C(=O)C(=O)c2c-3ccc3c(C)cccc23)C1 |  | 70% | 31% | Non-Toxic | 6%
14 | Cc1cccc2c3c(ccc12)-c1oc2c(c1C(=O)C3=O)CCN([C@H](CO)Cc1ccccc1)C2 |  | 56% | 45% | Non-Toxic | 9%
15 | Cc1cccc2c3c(ccc12)-c1oc2c(c1C(=O)C3=O)CCN(CCCN1CCN(C)CC1)C2 | inactive | 95% | 51% | Non-Toxic | 
16 | Cc1cccc2c3c(ccc12)-c1oc2c(c1C(=O)C3=O)CCN(CCN1CCN(C)CC1)C2 | inactive | 61% | 19% | Non-Toxic | 
17 | COC(=O)[C@H](C)N1CCc2c(oc3c2C(=O)C(=O)c2c-3ccc3c(C)cccc23)C1 | inactive | 65% | 25% | Non-Toxic | 
18 | CCCCN1CCc2c(oc3c2C(=O)C(=O)c2c-3ccc3c(C)cccc23)C1 | inactive | 38% | 14% | Non-Toxic | 
19 | Cc1cccc2c3c(ccc12)-c1oc2c(c1C(=O)C3=O)CCN(CCn1ccnc1)C2 | inactive | 96% | 29% | Non-Toxic | 
